Values quoted from earlier work in paper PMC9516332 (Frontiers in Oncology, 2022).
Where two headings read alike, the source gives them in different places.

Key:
[1] = biological target: panel of 255 wild-type kinases (Homo sapiens, UniProt Q16644); conditions: MAPKAPK3, 1 µmol/L single concentration, cited from earlier work
[2] = biological target: T1, panel of 255 wild-type kinases (Homo sapiens, UniProt P29323); conditions: kinase EPHB2, 1 µmol/L single concentration, cited from earlier work
T1 sequence (P29323 19-1055): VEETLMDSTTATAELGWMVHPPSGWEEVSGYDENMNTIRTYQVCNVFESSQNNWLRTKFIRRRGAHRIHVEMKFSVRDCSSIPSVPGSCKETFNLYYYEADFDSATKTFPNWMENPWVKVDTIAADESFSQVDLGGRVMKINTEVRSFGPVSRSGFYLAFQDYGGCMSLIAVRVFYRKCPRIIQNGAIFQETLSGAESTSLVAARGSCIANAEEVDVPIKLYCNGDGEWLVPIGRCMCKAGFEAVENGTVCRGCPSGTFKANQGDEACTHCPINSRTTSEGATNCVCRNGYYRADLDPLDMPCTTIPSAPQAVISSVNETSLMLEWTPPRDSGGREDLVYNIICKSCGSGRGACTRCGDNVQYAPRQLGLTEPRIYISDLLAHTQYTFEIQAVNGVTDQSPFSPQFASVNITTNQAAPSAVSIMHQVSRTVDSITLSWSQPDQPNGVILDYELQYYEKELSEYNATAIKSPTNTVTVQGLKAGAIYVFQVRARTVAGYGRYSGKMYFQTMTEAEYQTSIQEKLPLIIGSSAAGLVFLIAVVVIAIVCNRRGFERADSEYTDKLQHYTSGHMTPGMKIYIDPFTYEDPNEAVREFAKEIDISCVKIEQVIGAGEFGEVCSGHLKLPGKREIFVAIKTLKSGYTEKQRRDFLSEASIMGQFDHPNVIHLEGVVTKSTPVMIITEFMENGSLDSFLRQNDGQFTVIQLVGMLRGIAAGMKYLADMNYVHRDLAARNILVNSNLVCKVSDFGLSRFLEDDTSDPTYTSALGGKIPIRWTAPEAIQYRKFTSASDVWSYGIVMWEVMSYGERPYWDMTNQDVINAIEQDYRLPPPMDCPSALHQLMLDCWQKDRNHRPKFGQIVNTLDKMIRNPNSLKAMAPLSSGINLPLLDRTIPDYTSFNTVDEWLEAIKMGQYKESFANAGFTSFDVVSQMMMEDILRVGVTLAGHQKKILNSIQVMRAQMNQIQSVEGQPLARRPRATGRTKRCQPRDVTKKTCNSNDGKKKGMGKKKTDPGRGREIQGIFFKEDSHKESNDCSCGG

[3] = biological target: panel of 255 wild-type kinases (Homo sapiens, UniProt P57059); conditions: kinase SIK, 1 µmol/L single concentration, cited from earlier work
[4] = biological target: T2, panel of 255 wild-type kinases (Homo sapiens, UniProt P42681); conditions: kinase TXK, 1 µmol/L single concentration, cited from earlier work
T2 sequence (P42681 1-527): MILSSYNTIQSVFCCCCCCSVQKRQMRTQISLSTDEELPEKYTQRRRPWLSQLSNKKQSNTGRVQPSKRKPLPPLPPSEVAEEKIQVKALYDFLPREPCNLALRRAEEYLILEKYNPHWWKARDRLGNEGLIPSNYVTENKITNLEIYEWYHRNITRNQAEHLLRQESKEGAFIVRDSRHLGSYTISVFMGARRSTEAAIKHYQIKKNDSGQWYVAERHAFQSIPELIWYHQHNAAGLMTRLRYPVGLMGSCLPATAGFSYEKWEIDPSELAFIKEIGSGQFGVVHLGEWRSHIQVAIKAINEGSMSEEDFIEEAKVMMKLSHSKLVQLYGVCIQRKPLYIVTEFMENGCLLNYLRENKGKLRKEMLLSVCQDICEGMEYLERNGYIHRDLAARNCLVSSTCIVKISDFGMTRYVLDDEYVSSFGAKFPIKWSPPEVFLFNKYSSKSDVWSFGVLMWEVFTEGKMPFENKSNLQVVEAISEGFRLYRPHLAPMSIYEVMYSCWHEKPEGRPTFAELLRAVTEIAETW

[5] = biological target: panel of 255 wild-type kinases (Homo sapiens, UniProt Q5VT25); conditions: MRCKα, 1 µmol/L single concentration, cited from earlier work
[6] = biological target: T3, panel of 255 wild-type kinases (Homo sapiens, UniProt Q96PF2); conditions: kinase TSSK2, 1 µmol/L single concentration, cited from earlier work
T3 sequence (Q96PF2 1-358): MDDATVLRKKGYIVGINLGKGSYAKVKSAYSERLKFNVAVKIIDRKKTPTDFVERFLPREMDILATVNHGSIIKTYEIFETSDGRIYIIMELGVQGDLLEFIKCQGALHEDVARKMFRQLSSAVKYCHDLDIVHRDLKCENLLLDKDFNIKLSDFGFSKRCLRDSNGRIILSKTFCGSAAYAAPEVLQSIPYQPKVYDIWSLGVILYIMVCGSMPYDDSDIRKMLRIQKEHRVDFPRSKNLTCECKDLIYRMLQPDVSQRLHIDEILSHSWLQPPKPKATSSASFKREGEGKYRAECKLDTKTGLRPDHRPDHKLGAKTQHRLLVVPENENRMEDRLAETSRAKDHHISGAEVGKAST

[7] = biological target: panel of 255 wild-type kinases (Homo sapiens, UniProt Q05397); conditions: kinase FAK, 1 µmol/L single concentration, cited from earlier work
[8] = biological target: panel of 255 wild-type kinases (Homo sapiens, UniProt P21802); conditions: kinase FGFR2, 1 µmol/L single concentration, cited from earlier work
[9] = biological target: panel of 255 wild-type kinases (Homo sapiens, UniProt Q86V86); conditions: kinase PIM3, 1 µmol/L single concentration, cited from earlier work
[10] = biological target: panel of 255 wild-type kinases (Homo sapiens, UniProt P17948); conditions: kinase FLT1, 1 µmol/L single concentration, cited from earlier work
[11] = ref DOI: 10.1158/1535-7163.MCT-18-0877
[12] = ref DOI: 10.1371/journal.pone.0092146

Structure (SMILES) | %-inhibition, MAPKAPK3 [1, 11] [%] | %-inhibition at 1 µmol/L, EPHB2 [2, 11] [%] | %-inhibition at 1 µmol/L, SIK [3, 11] [%] | %-inhibition at 1 µmol/L, TXK [4, 11] [%] | %-inhibition, MRCKα [5, 11] [%] | %-inhibition at 1 µmol/L, TSSK2 [6, 11] [%] | %-inhibition at 1 µmol/L, FAK [7, 11] [%] | %-inhibition at 1 µmol/L, FGFR2 [8, 11] [%] | %-inhibition at 1 µmol/L, PIM3 [9, 11] [%] | %-inhibition at 1 µmol/L, FLT1 [10, 11] [%] | %-inhibition, MAPKAPK3 [1, 12] [%] | %-inhibition at 1 µmol/L, EPHB2 [2, 12] [%] | %-inhibition at 1 µmol/L, SIK [3, 12] [%] | %-inhibition at 1 µmol/L, TXK [4, 12] [%] | %-inhibition, MRCKα [5, 12] [%] | %-inhibition at 1 µmol/L, TSSK2 [6, 12] [%] | %-inhibition at 1 µmol/L, FAK [7, 12] [%] | %-inhibition at 1 µmol/L, FGFR2 [8, 12] [%] | %-inhibition at 1 µmol/L, PIM3 [9, 12] [%] | %-inhibition at 1 µmol/L, FLT1 [10, 12] [%]
C=CC(=O)N1CCC[C@@H](n2nc(-c3ccc(Oc4ccccc4)cc3)c3c(N)ncnc32)C1 [ibrutinib] | -6.5 | 28 | 8 | 98 | -0.621 | -4 | 5 | 81 | -0.241 | 73 | – | – | – | – | – | – | – | – | – | –
CO[C@@H]1[C@H](N(C)C(=O)c2ccccc2)C[C@H]2O[C@]1(C)n1c3ccccc3c3c4c(c5c6ccccc6n2c5c31)C(=O)NC4 [midostaurin] | -7 | 4.5 | 99 | 25 | 14 | 24 | 28 | 97 | 71 | 95 | – | – | – | – | – | – | – | – | – | –
C=CC(=O)Nc1cc(Nc2nccc(-c3cn(C)c4ccccc34)n2)c(OC)cc1N(C)CCN(C)C [osimertinib] | -9 | 2.8 | 22 | 82 | -4.55 | -0.257 | 81 | 5.56 | 15 | 9 | – | – | – | – | – | – | – | – | – | –
CC(=O)Nc1cccc(-n2c(=O)n(C3CC3)c(=O)c3c(Nc4ccc(I)cc4F)n(C)c(=O)c(C)c32)c1 [trametinib] | – | – | – | – | – | – | – | – | – | – | -9 | -8 | -3 | -4.66 | -0.565 | -1.73 | -2.41 | -2.64 | 8.44 | -2.75
CCCS(=O)(=O)Nc1ccc(F)c(C(=O)c2c[nH]c3ncc(-c4ccc(Cl)cc4)cc23)c1F [vemurafenib] | – | – | – | – | – | – | – | – | – | – | 12 | -2.11 | 24 | 5 | 0.383 | -11 | -3.55 | 10 | -5 | 25
